The record followed here is patent US6287827A, “Halo- or hydroxy-substituted nocathiacin antibiotics” (Bristol-Myers Squibb Company, priority 2000, dated 2001).

Assay in all cases: MIC, conventional serial broth dilution assay in nutrient broth (Difco)
Type in all cases: cell-based

Test [1] concerns Moraxella catarrhalis/β-lactamase positive A25409.
The subject of test [2] is Streptococcus pneumoniae A9585.
In test [3] the test system is Moraxella catarrhalis/β-lactamase positive A22344.
The subject of test [4] is Enterococcus avium A27456.
The test system of test [5] is Staphylococcus haemolyticus A27298.
Test [6] has as its system Enterococcus faecalis A27519.
The subject of test [7] is Staphylococcus epidermidis A24548.
Test [8] concerns Enterococcus faecium A24885.
The subject of test [9] is Streptococcus pneumoniae/penicillin intermediate A27881.
Test [10] relates to Streptococcus pneumoniae/penicillin resistant A28272.
For test [11], the system named is Staphylococcus aureus/QC/ATCC #29213 A24407. The following applies: ATCC29213.
Test [12] concerns Enterococcus faecalis A20688.
The subject of test [13] is Staphylococcus aureus/homo methicillin resistant A27223.
Test [14] has as its system Staphylococcus aureus/β-lactamase positive A15090.
The subject of test [15] is Bacillus subtilis/Thiostrep. Res/Mutant A9506A.
Test [16] relates to Haemophilus influenzae/β-lactamase negative A20191.
The subject of test [17] is Staphylococcus aureus/209P/ATCC #6538P A9497.
Test [18] has as its system Haemophilus influenzae/β-lactamase positive A21515.
For test [19], the system named is Bacillus subtilis/ATCC #6633 A9506A. The following applies: ATCC6633.
Test [20] has as its system Staphylococcus aureus/Thiostrep. Res/Mutant A9497.
The mark [21] stands for this setting: A20688, Enterococcus faecalis A20688.
[22] abbreviates: A20688, Enterococcus faecalis A20688 +50% calf serum.
Where [23] appears, read: Staphylococcus aureus A27223 + 50% calf serum.
Setting [24] is: Staphylococcus aureus/homo methicillin resistant A27223.
Where [25] appears, read: Staphylococcus aureus A15090 + 50% calf serum.
Where [26] appears, read: Staphylococcus aureus/β-lactamase positive A15090.

Converted amounts (≈) assume the structure as drawn.

With `C=C(NC(=O)c1csc(-c2nc3c(cc2O)-c2nc(cs2)C(=O)NC(C(C)O)C(=O)NC(=C(C)OC)c2nc(cs2)C(=O)NC2c4nc(cs4)C(=O)NC(COC(=O)c4c5c6c(c(F)ccc6n4O)COC(=O)C(OC4CC(C)(O)C(N(C)C)C(C)O4)C2OC5)c2nc-3cs2)n1)C(N)=O` (stereo not shown) [5-Fluoronocathiacin, 5-fluoronocathiacin], the MIC in test [1] was 0.06 µg/mL (≈ 41.2 nM); in test [2], ≤ 0.002 µg/mL; in test [3], 0.06 µg/mL (≈ 41.2 nM); in [4] it was 0.25 µg/mL (≈ 172 nM); in test [5], 0.003 µg/mL (≈ 2.06 nM); in test [6], 0.25 µg/mL (≈ 172 nM). Moreover, the MIC in test [7] was 0.007 µg/mL (≈ 4.81 nM); in [8], 0.25 µg/mL (≈ 172 nM); in [9], ≤ 0.002 µg/mL; in [10] it was ≤ 0.002 µg/mL; in test [11] it was 0.125 µg/mL (≈ 85.9 nM); in [12] (setting [21]), 0.25 µg/mL (≈ 172 nM). Besides, the MIC in [12] (setting [22]) stood at 0.25 µg/mL (≈ 172 nM); in test [13] (setting [23]) it was 0.003 µg/mL; in [13] (setting [24]), 0.003 µg/mL (≈ 2.06 nM); in test [14] (setting [25]), 0.125 µg/mL; in test [14] (setting [26]) it was 0.125 µg/mL (≈ 85.9 nM).

As to `C=C(NC(=O)c1csc(-c2nc3c(cc2O)-c2nc(cs2)C(=O)NC(C(C)O)C(=O)NC(=C(C)OC)c2nc(cs2)C(=O)NC2c4nc(cs4)C(=O)NC(COC(=O)c4c5c6c(cc(F)cc6n4O)COC(=O)C(OC4CC(C)(O)C(N(C)C)C(C)O4)C2OC5)c2nc-3cs2)n1)C(N)=O` (stereo not shown) [6-Fluoronocathiacin, 6-fluoronocathiacin], the MIC in [2] is < 0.0005 µg/mL; in [15], > 32 µg/mL; in [3], 0.25 µg/mL (≈ 172 nM); in test [16], > 16 µg/mL; in [17], 0.002 µg/mL (≈ 1.37 nM); in test [18] it was > 16 µg/mL. Further, the MIC was 0.004 µg/mL (≈ 2.75 nM) in test [5]; 0.004 µg/mL (≈ 2.75 nM) in test [7]; 0.004 µg/mL (≈ 2.75 nM) in test [8]; < 0.0005 µg/mL in test [9]; < 0.0005 µg/mL in test [10]; 0.002 µg/mL (≈ 1.37 nM) in [11]. The MIC was < 0.001 µg/mL in test [12] (setting [21]); 0.015 µg/mL (≈ 10.3 nM) in test [12] (setting [22]); 0.015 µg/mL in [13] (setting [23]); 0.002 µg/mL (≈ 1.37 nM) in test [13] (setting [24]); 0.002 µg/mL (≈ 1.37 nM) in test [19]; 16 µg/mL (≈ 11000 nM) in [20]. The MIC in test [14] (setting [25]) is 0.015 µg/mL; in test [14] (setting [26]), 0.002 µg/mL (≈ 1.37 nM).
